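These data come from cells grown in 96-well plates and exposed to compound for 48 hours at five concentrations. Definition used: TGI = concentration required for complete inhibition of growth.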
Legend:
Assay in all cases: NCI anticancer screen, dose series, 48 h
[1] = system: XF 498 CNS
[2] = system: DLD-1 colon
[3] = system: LXFL 529 NSCLC
[4] = system: DMS 114 small cell lung
[5] = system: M19-MEL melanoma
[6] = system: DMS 273 small cell lung
[7] = system: KM20L2 colon
[8] = system: HOP-18 NSCLC
[9] = system: RXF-631 renal

SMILES | TGI [1] [µM] | TGI [2] [µM] | TGI [3] [µM] | TGI [4] [µM] | TGI [5] [µM] | TGI [6] [µM] | TGI [7] [µM] | TGI [8] [µM] | TGI [9] [µM]
O=C(CC(CC(=O)Oc1c(Br)cc(Br)cc1C(=O)O)C(=O)Oc1c(Br)cc(Br)cc1C(=O)O)Oc1c(Br)cc(Br)cc1C(=O)O | 38.9 | > 100 | > 100 | > 100 | > 100 | > 100 | > 100 | – | –
Oc1ccc([Te]CCNCC[Te]c2ccc(O)cc2)cc1 | 39.2 | > 100 | 32 | – | 50.5 | > 100 | 55.1 | 66.5 | 90.2
NC1=NC2=c3ccccc3=C(c3cnccn3)C2(c2cnccn2)c2ccccc21 (configuration not stated) | > 100 | > 100 | – | > 100 | > 100 | > 100 | > 100 | > 100 | –
COC(=O)[C@H](Cc1ccccc1)NC(=O)/C(=C/C(C)C)NC(=O)[C@H](CCSC)NC=O | > 100 | > 100 | > 100 | > 100 | > 100 | > 100 | > 100 | > 100 | –
CCCCCCCCOCC(O)COC(C)C (configuration not stated) | – | > 100 | > 100 | – | > 100 | 34.7 | > 100 | > 100 | –
O=C(C=C1SCCS1)/C=C\c1ccc(Cl)cc1 | > 100 | > 100 | > 100 | – | > 100 | > 100 | – | – | > 100
CC(=O)OC1CC2CCN3C(=O)c4cc5c(cc4[C@H](C1OC(C)=O)C23)OCO5 (some centres not stated) | – | > 100 | > 100 | – | > 100 | > 100 | > 100 | – | –
COc1ccccc1C1C(Cl)C(=O)N1n1cnc2ccccc2c1=O (configuration not stated) | > 100 | > 100 | > 100 | > 100 | > 100 | > 100 | > 100 | > 100 | –
Nc1ccccc1Nc1ccccc1C(=O)[O-].Nc1ccccc1Nc1ccccc1C(=O)[O-].[Zn+2] | 78.7 | – | – | – | – | – | > 100 | – | –

Source: PubChem BioAssay (NCI)
